Blank lines part the entries; values can stand above or below the compound they belong to.
Assays:
mice = conditions: mouse
Mycobacterium avium 101 = assay: In vivo efficacy in mice infected with Mycobacterium avium 101 (FIG. 2); conditions: dosed orally with 25 mg/kg and 100 mg/kg
Method: Panel A is the log 10 colony forming units (CFU) drop in bacteria in the lungs when treated with ND-10885 (at 25 and 100 mg/kg), rifampicin (RMP, 20 mg/kg) and a combination of ND-10885 (100 mg/kg) and rifampicin (20 mg/kg). Panel B is the log 10 colony forming units (CFU) drop in bacteria in the spleen when treated with ND-10885 (at 25 and 100 mg/kg), rifampicin (RMP, 20 mg/kg) and a combination of ND-10885 (100 mg/kg) and rifampicin (20 mg/kg). Panel C is the log 10 colony forming units (CFU) drop in bacteria in the liver when treated with ND-10885 (at 25 and 100 mg/kg), rifampicin (RMP, 20 mg/kg) and a combination of ND-10885 (100 mg/kg) and rifampicin (20 mg/kg).

in vivo = conditions: mouse, MTD (maximum tolerated dose)
M. avium = assay: Murine MAC infection model, two week infection in Balb/c mice; type: in vivo, Mycobacterium avium; conditions: two week infection experiment, control
Source text: AND CHEMOTHERAPY, 1995, 39(8), 1647-1654 for review of MAC infection model and Antimicrob Agents Chemother. 1992, 36(11):2413-7 for a typical experiment (done with clarithromycin).

melting point: 186 to 187 °C
SMILES: Cc1ccn2c(C(=O)NCc3ccc(S(F)(F)(F)(F)F)cc3)c(C)nc2c1

melting point: 191 to 192 °C
SMILES: CCc1nc2ccc(Cl)cn2c1C(=O)NCc1ccc(S(F)(F)(F)(F)F)cc1

melting point: 176 to 177 °C
SMILES: Cc1ccc2nc(C)c(C(=O)NCc3ccc(S(F)(F)(F)(F)F)cc3)n2c1

SMILES: Cc1ccn2c(C(=O)NCc3ccc(N4CCOCC4)cc3)c(C)nc2c1 [ND-10823]
dose limiting toxicity / in vivo toxicity (mice): 100 mg/kg

SMILES: Cc1ccn2c(C(=O)NCc3ccc4c(c3)CCO4)c(C)nc2c1 [ND-10885]
in vivo efficacy (log 10 CFU drop in lungs, spleen, liver) (Mycobacterium avium 101): validate the in vivo efficacy

SMILES: Cc1ccn2c(C(=O)NCc3ccc(N4CCCN(c5ccc(C(F)(F)F)cc5)CC4)c(F)c3)c(C)nc2c1 [ND-11598]
MTD (in vivo): ≥ 250 mg/kg

SMILES: CCc1nc2ccc(Cl)cn2c1C(=O)NCc1ccc(N2CCSCC2)c(F)c1 [ND-11622]
MTD (in vivo): ≥ 250 mg/kg

SMILES: CO[C@H]1/C=C/O[C@@]2(C)Oc3c(C)c(O)c4c(O)c(c(/C=N/N5CCN(C)CC5)c(O)c4c3C2=O)NC(=O)/C(C)=C\C=C\[C@H](C)[C@H](O)[C@@H](C)[C@@H](O)[C@@H](C)[C@H](OC(C)=O)[C@@H]1C [rifampicin]
log 10 CFU drop in the amount of M. avium in the lungs (M. avium): 1.8 log 10 CFU

— patent US10919888B2, “Benzyl amine-containing heterocyclic compounds and compositions useful against mycobacterial infection” (priority 2015, dated 2021)
